In article PMC12143354, “Determining sex differences in aortic valve myofibroblast responses to drug combinations identified using a digital medicine platform” (Science Advances, 2025):
Where two headings read alike, the source gives them in different places.

Columns and labels:
[1] = tested on: male VICs; experiment: percent αSMA GMI reduction by immunofluorescent staining, male VICs on TCPS; format: cell-based, pig; conditions: for reduction in αSMA GMI, initial screen: male VICs on TCPS, dosing range 10^-7 to 10^3 μM; for Percent αSMA reduction, Average: male VICs, TCPS, single drug at L2 dose, n = 3 wells
Experimental: (§1) VICs were collected by aspirating off spent media, washing with PBS (Sigma-Aldrich) for 1 min, then incubating with 1× trypsin (Life Technologies) for 3 min. Trypsin was neutralized with an equal volume of 15% FBS growth media and centrifuged for 5 min at 0.2g. The media solution was then aspirated, and VICs were resuspended with 1 ml of 1% FBS media. VICs were counted with an automated hemocytometer to calculate the volume of cell solution to add to each well to seed at 6400 cells per well (20,000 cells/cm^2) for TCPS and hydrogel experiments. […] For each inhibitor, the nonlinear regression tool in Prism was used to estimate the response against the agonist by fitting the top, bottom, EC50/CC50, and hillslope to each dataset.

[2] = tested on: male VICs; experiment: percent αSMA GMI reduction, male VICs on stiff hydrogels; format: cell-based, pig; conditions: male VICs; for EC1 / EC2: from dose response curves; for Percent αSMA reduction, Average: n = 3-4 gels
Experimental: (§2) Glass-bottom 96-well plates (Cellvis) were placed in an autoclave jar with a scintillation vial containing 100 μl of mercaptopropyltrimethoxysilane (MPTS; Sigma-Aldrich). The autoclave jar was then lightly sealed and placed inside an oven at 60°C for a minimum of 6 hours. The autoclave jar was opened in a chemical fume hood, and the vapor-deposited well plate was stored for up to 2 hours until ready for use. Eight-arm 20-kDa PEG-norbornene (PEG-Nb) was formed as outlined previously ([76]). A 7% (w/v) PEG-Nb hydrogel precursor solution was formed by combining phosphate-buffered saline (PBS), 20-kDa PEG-Nb at a 0.98:1 thiol-to-ene ratio, 5-kDa PEG-dithiol (Jenkem), CRGDS cell binding motif (Bachem), and lithium phenyl-2,4,6-trimethyl-benzoylphosphinate (Thermo Fisher Scientific). An EPMotion 5073l automated liquid handling system (Eppendorf) was used to pipet 7 μl of the hydrogel precursor solution into the center of each well of the vapor-deposited 96-well glass-bottom plate. The well plate with the hydrogel precursor solution was then stamped using a custom 96-well plate stamp, inverted, and cured under ultraviolet light at 10 mW/cm^2 for 3 min to induce gelation. The stamp was carefully removed by hand, and the newly formed gels were sterilized with a solution of 5% isopropyl alcohol (Thermo Fisher Scientific) in PBS for 20 min. Gels were then washed twice with PBS and stored in VIC media composed of Media199 (Life Technologies), 1% fetal bovine serum (FBS, Life Technologies), amphotericin B (1 μg/ml; Thermo Fisher Scientific), penicillin (50 U/ml; Sigma-Aldrich), and streptomycin (50 μg/ml; Sigma-Aldrich). Last, the hydrogels were placed in an incubator at 37°C with 5% carbon dioxide for up to 24 hours until experimental use.
(§3) Media changes were performed every 24 to 48 hours until cells reached ~80% confluency. […] The media solution was then aspirated, and VICs were resuspended with 1 ml of 1% FBS media. VICs were counted with an automated hemocytometer to calculate the volume of cell solution to add to each well to seed at 6400 cells per well (20,000 cells/cm^2) for TCPS and hydrogel experiments. For all experiments, VICs were seeded with 1% FBS media containing the specified drug doses and incubated at 37°C with 5% carbon dioxide with media changes every 48 to 72 hours if needed.
(§4) Drug stock solutions were discarded after two thaw cycles or after 10 months of storage. For all experiments, drug dilutions were calculated and added to VIC media to ensure that total DMSO levels remained below 1% for cytotoxicity and αSMA reduction curve fitting experiments and below 0.3% for drug combination experiments.
(§5) After culture on hydrogels or TCPS, the spent drug-containing media were removed, and VICs were immersed in a 4% paraformaldehyde solution in PBS for 20 min and then permeabilized for 1 hour with 0.1% Triton X-100 (Thermo Fisher Scientific) in PBS. Cells were then blocked with 5% bovine serum albumin in PBS for 1 hour at room temperature or over the weekend at 4°C. […] Last, VICs were washed once with PBS and then stored in PBS at 4°C until imaging. Gel samples were imaged in situ using a Nikon Eclipse Ti2-E and analyzed using an automated MATLAB code to quantify the αSMA gradient mean intensities and caspase-3 intensities normalized to cell mask for each cell. A minimum of 100 cells were used per gel with multiple gels used per condition.
(§6) Curve fitting for VIC percent αSMA reduction and cytotoxicity was performed using GraphPad Prism 10 (GraphPad Software Inc). For each inhibitor, the nonlinear regression tool in Prism was used to estimate the response against the agonist by fitting the top, bottom, EC50/CC50, and hillslope to each dataset. After 2 days of culture, the percent αSMA reduction was calculated using the average αSMA gradient mean intensities of the control relative to the drug condition using Eq. 1 %αSMA reduction=100×(Control−Drug Condition/Control) (1)

[3] = tested on: male VICs; experiment: percent αSMA GMI reduction, male VICs on soft hydrogels; format: cell-based, pig; conditions: single drug at L2 dose, n = 3 gels
Text: (§7) Last, we tested the ability of […]-designed combinations to prevent myofibroblast activation in VICs cultured on other substrates beyond stiff hydrogels. […] Six male-optimized combinations were effective in preventing male VIC myofibroblast activation (Fig. 7K). […] Single-drug monotherapies used in the top male and female drug combinations were confirmed to have a minimal effect on male and female VIC αSMA GMI on soft hydrogels (table S14). […] After aspirating off the spent media, VICs were resuspended in 5 ml of fresh 15% FBS media and seeded on T25 Falcon tissue culture-treated flasks (Thermo Fisher Scientific). […] VICs were collected by aspirating off spent media, washing with PBS (Sigma-Aldrich) for 1 min, then incubating with 1× trypsin (Life Technologies) for 3 min. Trypsin was neutralized with an equal volume of 15% FBS growth media and centrifuged for 5 min at 0.2g. The media solution was then aspirated, and VICs were resuspended with 1 ml of 1% FBS media. VICs were counted with an automated hemocytometer to calculate the volume of cell solution to add to each well to seed at 6400 cells per well (20,000 cells/cm^2) for TCPS and hydrogel experiments. […] For each inhibitor, the nonlinear regression tool in Prism was used to estimate the response against the agonist by fitting the top, bottom, EC50/CC50, and hillslope to each dataset.

[4] = tested on: female VICs
Experimental: as §5
(§8) Percent cytotoxicity was determined by designating each cell as alive or dead using caspase-3 intensity normalized to cell mask intensity, which was thresholded using a positive and negative control for cell death [10 nM staurosporine (Cell Signaling Technologies) or 1% FBS media]. The bottom value for every curve fit was set to 0, and the top value was constrained to a maximum of 100 to indicate the maximum possible effect of the drug. […] Absolute EC and CC values for % αSMA reduction and percent cytotoxicity were quantified using the top, bottom, EC50/CC50, and hillslope values estimated from the curve fits generated in GraphPad Prism (GraphPad Software Inc).

[5] = tested on: male VICs
Experimental: as §5, §8

[6] = tested on: female VICs; experiment: percent αSMA GMI reduction, female VICs on soft hydrogels; format: cell-based, pig; conditions: n = 3 gels
Text: as §7

[7] = tested on: female VICs; experiment: percent αSMA GMI reduction by immunofluorescent staining, female VICs on TCPS; format: cell-based, pig; conditions: for reduction in αSMA GMI, initial screen: female VICs on TCPS, dosing range 10^-7 to 10^3 μM; for Percent αSMA reduction, Average: female VICs, TCPS, n = 3 wells
Experimental: as §1

[8] = tested on: female VICs; experiment: percent αSMA GMI reduction, female VICs on stiff hydrogels; format: cell-based, pig; conditions: for EC1 / EC2: from dose response curves; for Percent αSMA reduction, Average: n = 3-4 gels
Experimental: as §2, §3, §4, §5, §6

[9] = ref (79) Irosustat, (80) Losartan, cited from earlier work
[10] = female VICs on stiff gels, n = 3 gels
[11] = female VICs, stiff hydrogels, from dose response curves
[12] = male VICs on stiff gels, n = 3 gels
[13] = male VICs, stiff hydrogels, from dose response curves

SMILES	reduction in αSMA GMI, initial screen [1] [%]	Percent αSMA reduction, Average [1] [%]	EC1 [2] [µM]	EC2 [2] [µM]	Percent αSMA reduction, Average ([2]; single drug at level 1 dose) [%]	Percent αSMA reduction, Average ([2]; single drug at level 2 dose) [%]	Percent αSMA reduction, Average [3] [%]	CC25 (percent cytotoxicity) [4, 10] [µM]	CC1 [4, 11] [µM]	CC2 [4, 11] [µM]	CC25 (percent cytotoxicity) [5, 12] [µM]	CC1 [5, 13] [µM]	CC2 [5, 13] [µM]	Percent αSMA reduction, Average ([6]; single drug at L2 dose) [%]	reduction in αSMA GMI, initial screen [7] [%]	Percent αSMA reduction, Average ([7]; single drug at L2 dose) [%]	EC1 [8] [µM]	EC2 [8] [µM]	Percent αSMA reduction, Average ([8]; single drug at level 1 dose) [%]	Percent αSMA reduction, Average ([8]; single drug at level 2 dose) [%]	other results
O=C(COCC(=O)Nc1ccc(Cl)cc1C(=O)O)Nc1cccc(-c2ccoc2)c1 [TM5441]	> 25	18.36	4.96	9.3	-1.46	2.18	13.16	191	19.7	31.1	51.3	18.9	21.9	17.16	> 25	8.37	24.8	33.6	1.52	-7.64	
NS(=O)(=O)Oc1ccc2c3c(c(=O)oc2c1)CCCCC3 [Irosustat]	> 25	-1.15	92.6	106.3	0.84	0.67	-10.38	109	50.2	57.9	125	48.5	58.7		> 25		74.4	84.7	9.62	-0.55	Percent αSMA reduction, Average ([6]; single drug at L1 dose): 4.80%; Percent αSMA reduction, Average ([7]; single drug at L1 dose): 1.88%; Cmax ([9]; read-out: 5% Cmax, 5% of Cmax from FDA documents and clinical studies): 10.6 nM; Cmax ([9]; read-out: 10% Cmax, 10% of Cmax from FDA documents and clinical studies): 21.2 nM
O=c1cc(N2CCOCC2)oc2c(-c3ccccc3)cccc12 [LY294002]	> 25	-4.91	12.8	17.6	6.86	5.50	13.23							11.35	> 25	-8.32	8.63	13.4	9.50	2.75	CC1 ([4]; female, pig): 17.7 µM; CC2 ([4]; female, pig): 21.3 µM; CC25 (percent cytotoxicity) ([4]; female, pig): 45.2 µM; CC1 ([5]; male, pig): 21.5 µM; CC2 ([5]; male, pig): 25.2 µM; CC25 (percent cytotoxicity) ([5]; male, pig): 46.9 µM
